Data on 1 molecule can be found in patent publication US20190010461A1, “HUMAN PLURIPOTENT STEM CELL-BASED SCREENING FOR SMOOTH MUSCLE CELL DIFFERENTIATION AND DISEASE” (Wisconsin Alumni Research Foundation, priority 2017, published 2019).

Assay [1] has as its system MYH11 promoter-driven luciferase activity. The assay can be described thus: High-throughput screening, MYH11-Nluc-2A-Tom reporter human ES cell line, luciferase assay. The class given is cell-based. On the procedure: FIGS. 1A-1C depict a schematic of high-throughput screening. […] The cells were passaged at day 4 and seeded on the 96-well plate for screening (2×10^6 cells/plate). After the reporter cell line was differentiated into mesoderm, small molecules were added to the cells from day 4 to day 14. FIG. 1B depicts the results of the screening in two batches. The luciferase assay results of individual small molecules were normalized to the average reads of all samples for each batch. The small molecules were selected for further analysis when the normalized reads were greater than “average+3×STDEV”. FIG. 1C depicts optimizing the concentration of the selected small molecules.
The cells were treated with 50 ng/ml FGF2 and 20 ng/ml BMP4 for another two days. The cells were passaged at day 4 and seeded on the 96-well plate for screening (2×10^6 cells/plate). The compounds were added from day 4-14. The Luciferase substrate (1000× dilution) (Nano-Glo Luciferase Assay system, Promega) was added to the medium for 15 min and luminescence was measured. An increase in luminescence indicates increased MYH11 expression, which is an indicator of the contractile smooth muscle cell phenotype. The Thomson custom stem cell Modulator 1, GSK-kinase inhibitor library, SellekChem Kinase inhibitor library, Analyticon NATx library, Prestwick Chemical Library, GlaxoSmithKline Protein Kinase Inhibitors, and part of Enamine Representative Diversity library were used for screening.
High-throughput screening directs contractile smooth muscle cell differentiation—The construction of the MYH11-NLuc-tdTomato human ES cell reporter line generated by CRISPR/Cas9 technology is described in FIGS. 6A-6H. The reporter cell line was differentiated into mesoderm in E8BAC medium (Zhang et al., 2017) for two days and treated with FGF2 and BMP4 to further mature mesoderm for another two days. The cells were then passaged into a 96-well plate and exposed to small molecules for 10 days using a customized robotic workstation (FIG. 1A). The workstation was designed through collaboration with TECAN, which enables us to perform the automatic high-throughput screening at specific time point and in long-term. The medium were changed every other day and the small molecules were added during the feeding. […] We then validated these hits and optimized their concentration.

The subject of assay [2] is NOTCH1. On the procedure:
Data are represented as mean±SD, n=3 biological replicates. *, p<0.05, student t-test. […] Cells were treated with RepSox (25 μM) or SiRNA. Comb3: Knockdown of TGFBR1, ACVR1B, and ACVR1C at the same time. Data are represented as mean±SD, n=2 biological replicates. *, p<0.05, student t-test. […] Cells were treated with RepSox (25 μM) or SiRNA. Data are represented as mean±SD, n=2 biological replicates. *, p<0.05, student t-test. […] During the smooth muscle cells differentiation, cells were treated with or without RepSox from day 10-11. […] During the smooth muscle cells differentiation, cells were treated with RepSox for 1 or 20 hours at day 12. […] Data are represented as mean±SD, n=3 biological replicates. *, p<0.05, student t-test. […] Cells were treated with RepSox and non-targeting control (NT)/SiRNA at day 10. The RNA was isolated at day 14.

Take `Cc1cccc(-c2n[nH]cc2-c2ccc3ncccc3n2)n1` [RepSox, RepSox (SJN 2511)]: the “effectiveness at promoting MYH11 expression among validated hits” value in assay [1] (hits validated, concentration optimized) is listed as “most effective”. Further, the “promotes MYH11+ SMC differentiation (increased MYH11 promoter-driven luciferase activity)” value in assay [1] (small molecules added day 4-14, selected when normalized reads > average+3×STDEV) was “promotes MYH11^+ SMC differentiation”. Further, the “RepSox treatment time after which increased NOTCH signaling could be detected” value in assay [2] (RepSox for 1 or 20 hours at day 12) amounted to 1 h. Also, the “full-length NOTCH1 and intracellular domain (NICD) expression” value in assay [2] (treated with or without RepSox day 10-11) is recorded as “enhanced”.
